Data on 2 substances can be found in patent US20160195533A1, “METHOD FOR SCREENING EMT INHIBITOR” (Medicinal Bioconvergence Research Center, priority 2015, published 2016).

In series [1] the test system is A549 cells. The experiment in a line: Cell migration assay (Transwell) after EPRS knock-down. In kind it is cell-based. The following applies: si-EPRS vs si-control, groups treated with and without TGF-β1 (10 ng/ml, 12 hours). As to the method: Cell migration assays with A549 cells were performed in Transwell chambers ([…] pore, Costar). Fibronectin (10 μg/ml, BD Biosciences) was coated on the membrane and 700 μl serum-free RPMI was placed in the bottom chamber. After A549 cells were trypsinized and centrifuged at 1,000 rpm for 5 minutes, serum-free RPMI was added to the cells for suspension. Then, 1×10^5 cells were dropped into 24-well Transwell chambers and incubated for 12 h at 37° C. in a CO2 incubator. After washing the membrane twice with PBS, 70% methyl alcohol in PBS was used for cell fixation. PBS washing was performed three times afterwards and hematoxylin (Sigma) was used for cell staining After washing the membrane with distilled water several times, non-migrant cells from the top were removed by using cotton swab. Then, the membranes were mounted with Gel Mount (Biomeda). For counting migrant cells, three randomly picked places were magnified with microscopes in high-power fields (×10, and ×20). All samples were performed in triplicate.
Here, the TGF-β1 treatment groups were treated at a concentration of 10 ng/ml for 12 hours.

In series [2] the test system is EPRS (A549 cells). The experiment in a line: Immunoblotting of Snail1 and EMT-related markers after EPRS knock-down using siRNA. Format: cell-based, human. The following applies: si-EPRS vs si-control, with or without 10 ng/ml TGF-β1 for 1 hour or 48 hours, cytoplasm and nucleus. As to the method: Human EPRS gene specific siRNA (si-EPRS) including a sense strand of SEQ ID NO: 23 and an antisense strand of SEQ ID NO: 24, and non-silencing control siRNA (si-control, Catalog Number: 4390843) were purchased from Invitrogen Silencer Select siRNAs products.
Cells were lysed with lysis buffer (20 mM Tris-HCl (pH 8.0) buffer containing 150 mM NaCl, 1% Triton X-100, 1 mM EDTA, 10% glycerol, and protease inhibitor) and collected in a 1.5 ml tube and incubated in 4° C. with gentle agitation for 15 minutes. Then, centrifuged at 15,000 rpm for 20 minutes in 4° C. and supernatants were collected and quantified by using Bradford reagent. After 5×SDS sample buffer was added, each sample were boiled in 100° C. for 5 minutes. Protein samples were separated by SDS-PAGE, transferred to nitrocellulose membrane, and immunoblotted with specific antibodies. The blots were then reacted with horseradish peroxidase-coupled anti-mouse and anti-rabbit (Pierce) IgG secondary antibody. Signals were developed with ECL-PLUS detection reagent (GE healthcare lifesciences).
The antibodies specific to the respective marker proteins, used in the present experiment, are as follows: StrepMAB classic-HRP (IBA), Monoclonal anti-FLAG M2-HRP (Sigma), anti-Snail1 (Cell signaling), anti-Slug (Cell signaling), anti-L13a (Cell signaling), anti-p-Smad2 (Cell signaling), anti-p-Smad3 (Cell signaling), anti-E-cadherin (Cell signaling), anti-N-cadherin (Cell signaling), anti-HDAC1 (Bio vision), anti-β-actin (SCBT), anti-Tubulin (Sigma), anti-HSP90 alpha/β (SCBT), anti-p84 (SCBT), and anti-HA (SCBT). The anti-EPRS antibody was prepared through a conventional procedure by which the EPRS protein represented by SEQ ID NO: 1 was injected into a New Zealand white rabbit to cause an immune response, thereby obtaining an antibody.
It was verified how the reduced EPRS affects Snail1 and EMT progress, through EPRS knock-down experiment using siRNA. For each experimental group, […] cells were treated with si-control or si-EPRS, and treated with or without 10 ng/ml of TGF-β1 for 1 hour or 48 hours. […]

Series [3] concerns A549 cells. The experiment in a line: Cell invasion assay (Matrigel invasion chamber) after EPRS knock-down. Format: cell-based. To be noted: si-EPRS vs si-control, groups treated with and without TGF-β1 (10 ng/ml, 12 hours). As to the method:
Cell invasion assay using A549 cells were conducted in the Matrigel invasion chamber manufactured by BD Co. According to the manufacturer's protocol, the matrigel was rehydrated for two hours and 750 μl of the serum-free RPMI was located in a lower chamber. The A549 cells were trypsinized, and then centrifuged at 1,000 rpm for 5 minutes. The serum-free RPMI was added to the cells to prepare a suspension. Then, 1×10^5 cells were put in the upper chamber, and then incubated in a CO2 incubator at 37° C. for 12 hours. The membrane was washed two times with PBS, and the cells were fixed using PBS containing 70% methyl alcohol. Then, the membrane was washed three times with PBS, and then the cells were stained with hematoxylin (Sigma). The membrane was washed several times with distilled water, and then immobilized cells above were removed using cotton swabs. Then, the membrane was mounted on the Gel Mount (Biomeda). For counting moving cells, three randomly selected regions were magnified through the microscope. All samples were repeatedly tested three times.
Here, the groups treated with TGF-β1 were prepared by treatment at a concentration of 10 ng/ml for 12 hours.

For series [4], the system named is binding between EPRS and Snail1. As to the kind of experiment: Endogenous immunoprecipitation of EPRS with Snail1 immunoblot in TGF-β1-treated cells. In kind it is cell-based. The following applies: A549 cells, TGF-β1 0, 1, 10, 20 ng/ml for 48 hours, cytoplasm and nucleus fractions. As to the method: For the detection of endogenous EPRS interaction with Snail1 in nucleus and cytosol, the protein extracts were incubated with protein A agarose (Life technologies) for 30 minutes on ice, and then centrifuged to remove nonspecific IgG binding proteins. The pre-cleared supernatants were mixed with anti-EPRS antibody, incubated the mixture for 2 h at 4° C. with gentle agitation, added protein A agarose for 2 h, and centrifuged. After washing the precipitates with the cold lysis buffer 3-5 times, the precipitates were dissolved in the 2×SDS sample buffer and separated by SDS-PAGE.
The interaction between EPRS and Snail1 were verified at the endogenous level of cytoplasm and nucleus. A549 cells were treated with TGF-β1 of different concentrations (0, 1, 10, 20 ng/ml) for 48 hours, fractionated into the cytoplasm and the nucleus, and then subjected endo-IP using protein A-agarose beads (Invitrogen) and EPRS antibody.

With “si-EPRS: Human EPRS gene specific siRNA including a sense strand of SEQ ID NO: 23 and an antisense strand of SEQ ID NO: 24 (sense CGAUGUCAGCAUUUCCGUUTT; antisense AACGGAAAUGCUGACAUCGTC; chemistry not given here)”, the cell migration entry in series [1] is “reduced”. Moreover, in series [2], the “E-cadherin protein level (immunoblot)” value is on record as “increased”, the “Snail1 protein level (immunoblot)” value is given as “reduced” and the “p-SMAD3 protein level (immunoblot)” value was “reduced”. Further, the cell invasion entry in series [3] is recorded as “reduced”.
Take “TGF-β1: Growth factor purchased from R&D systems, used to induce EMT”: in series [4], the “binding between EPRS and Snail1 (endo-IP, Snail1 immunoblot)” value was “the higher the concentration of TGF-β1, the stronger the binding between EPRS and Snail1”.
